This is an account of results in US12527782B2, “Use of hexokinase 2/mitochondria-detaching compounds for treating hexokinase-2 (HK2)-expressing cancers” (Vidac Pharma Ltd., priority 2016, dated 2026).

Test [1] deals with Lung (NSCLC, adeno) LXFA 629. The experiment in a line: CFA, LXFA 629. The class given is cell-based, human. To be noted: PDX/CFA. As for the experimental part:
(§1) CFA was performed by Charles River Laboratories (Freiburg, Germany) in 96-well plate format according to a modified two-layer soft agar assay. The origin of the tumor xenografts has been described (Fiebig et al. 1989, incorporated herein by reference). The list of tumors used in this study is detailed in Table 1.

The test system of the next test is CTCL cell line Hut-78. The experiment in a line: PrestoBlue cell viability, Hut-78. The class given is cell-based, human. As to conditions: 72 hours. Here is the method:
Cutaneous T-cell lymphoma (CTCL) cell lines MJ and Hut78 were purchased from ATCC (CRL-8294, and TIB-161, respectively). Cells were grown in Iscove's Modified Dulbecco's Media supplemented with 2 mM L-glutamine, 10% fetal bovine serum, 100 U/mL of penicillin and 0.1 mg/mL of streptomycin.
Cells (1-2×10^4) were seeded in 96-well plates and treated with Formula C. Cell viability was determined 72 hours later using PrestoBlue reagent according to manufacturer's instruction (Life Technologies). The percentage of viability was expressed according to the fluorescence emitted by Formula C-treated cells compared to DMSO-treated control cells. The florescence emission values at 590 nm were measured with the plate-reader Spark 10M—multimode microplate reader (TECAN).

Test [2] has as its system Lung (SCLC) LXFS NCI-H727. The experiment in a line: CFA, LXFS NCI-H727. In kind it is cell-based, human. To be noted: Cell line/CFA. As for the experimental part: as §1
The next test has as its system Prostate PRXF MRI-H-1579. The experiment in a line: CFA, PRXF MRI-H-1579. The class given is cell-based, human. To be noted: Cell line/CFA. Here is the method:
as §1

The next test relates to Prostate PC-3. Briefly: XTT cell viability assay, PC-3. To be noted: Cell line/XTT. The class given is cell-based, human. Here is the method: For XTT assays, cells were plated in 96-well plates (5,000 cells per well) for 24 hours. Cells were then incubated with different concentrations of Formula C in triplicates for 72 hr in DMEM supplemented with 0.5% FCS and 5 mM Glucose. Cell viability was evaluated using 2,3-bis-(2-methoxy-4-nitro-5-sulfophenyl)-2H-tetrazolium-5-carboxanilide (XTT)-based colorimetric assay kit (Biological Industries Ltd., Kibbutz Beit-Haemek, Israel). The optical density was measured by an Infinite 200 ELISA reader at 450 nm and reference was measured at 630 nm (Tecan, Männedorf, Switzerland).

The subject of test [3] is Leukemia (AML) LEXFAM KG-1. The experiment in a line: CFA, LEXFAM KG-1. In kind it is cell-based, human. To be noted: Cell line/CFA. Here is the method: as §1
Test [4] has as its system Pancreas PAXF Mia-Pa-Ca-2. Briefly: CFA, PAXF Mia-Pa-Ca-2. In kind it is cell-based, human. As to conditions: Cell line/CFA. Here is the method: as §1
The test system of test [5] is AK/cSCC mouse model of chronic UVB exposure. The experiment in a line: AK/cSCC mouse model of chronic UVB exposure: histopathology and IHC of epidermis. To be noted: for HK2 protein levels in AK areas (IHC): 5% Formula C. In kind it is in vivo. Here is the method:
The formulation ingredients for vehicle, 2.5%, and 5% Formula C ointment consisted of: 32% Gelucire44/14® (Gattefosse, Saint-Priest, France), and 68% combined Labrasol® (Gattefosse, Saint-Priest, France) with corresponding amount of Formula C (w/w). New ointments were prepared every 2 weeks. The 40% topical solution was prepared just prior to use by mixing (w/w) 60% propylene glycol (Sigma, St. Louis, MO, USA) with 40% Formula C.
Histopathological analysis and IHC was performed according to standard protocols. Primary antibodies used: rabbit anti-HK1 and rabbit anti-HK2 (C35C4 and C64G5, CST, Danvers, MA), rabbit anti cleaved caspase 3 (PP229, Biocare Medical, Concord, CA), Secondary antibody was goat anti-Rabbit IgG(H+L) (474-1506, KPL, Gaithersburg, MD). Rabbit anti-CD3 (SP7), rabbit anti-F4/80 (SB-M3072, SB-M4152, Nordic Biosite, Taby, Sweden), mouse anti-Langerin/CD207 (DDX0361, Dendritics, Lyon, France). For these three primary antibodies, a polymer system was used as a secondary antibody (KDB-10046 and KDB-10007, Nordic Biosite, Taby, Sweden). Semi-quantitative analysis was done in a blinded manner by a single experienced pathologist scoring ×40 high power fields, 7 different fields per slide.
The effect of Formula C on cell proliferation and apoptosis was tested in an AK/cSCC mouse model of chronic UVB exposure. Forty-eight SKH-1 hairless female mice were chronically exposed to UVB radiation for 16 weeks. By that time, more than 60% of the animals had developed at least one SCC lesion. Three days after the final irradiation dose, the mice were randomly assigned to 1 of 4 treatment groups (N=12 mice/group) and a 50-day treatment phase started. Treatment groups included: vehicle, 2.5% or 5% Formula C ointment applied once-daily for 50 days, or 40% Formula C topical solution applied once-daily for the first 5 days of every three-week cycle (total of three treatment cycles).

A further test relates to Lung (SCLC) LXFS NCI-H82. The experiment in a line: CFA, LXFS NCI-H82. In kind it is cell-based, human. To be noted: Cell line/CFA. As for the experimental part:
as §1

Another test has as its system Breast MAXF 857. Briefly: CFA, MAXF 857. The class given is cell-based, human. As to conditions: PDX/CFA. Here is the method: as §1
Test [6] concerns Leukemia (AML) LEXFAM MV4-11. Briefly: CFA, LEXFAM MV4-11. In kind it is cell-based, human. As to conditions: Cell line/CFA. Here is the method: as §1
A further test relates to Breast MAXF 401. Briefly: CFA, MAXF 401. The class given is cell-based, human. As to conditions: PDX/CFA. As for the experimental part: as §1
Test [7] relates to Leukemia (ALL) LEXFAL MOLT-4. Briefly: CFA, LEXFAL MOLT-4. The class given is cell-based, human. As to conditions: Cell line/CFA. Here is the method:
as §1

The test system of another test is A431 cells. The experiment in a line: Apoptosis: cytochrome C in mitochondrial fraction (WB), A431 cells. The class given is cell-based, human. To be noted: within 2 hours of treatment, WB semi-quantification. As for the experimental part: Antibodies used: anti-rabbit HK1 (C-20245) and HK2 (C-28765) from CST (Danvers, MA), anti-rabbit PPIA (ab41684, Abcam), anti-rabbit TIM22 (14927-1-AP, Proteintech Group Inc., Rosemont, IL), anti-rabbit Cytochrome C (PA1118, Boster Biological Technology, Pleasanton, CA). Detection was performed using secondary antibodies: peroxidase-conjugated Affinipure goat anti-rabbit IgG (H+L) or goat anti-mouse IgG (H+L) (111-035-003 and 115-035-003, Jackson ImmunoResearch, West Grove, PA), and development was using the ECL kit WesternBright™ ECL (K-12045-D10, Advansta, Menlo Park, California, USA).
Apoptosis induction was determined by semi-quantification of cytochrome C levels in the mitochondrial fraction analyzed by WB, following 2 hours of treatment with Formula C in A431 cells. Cleaved caspase-3 levels were analyzed following 6 hours of Formula C treatment in A431 cells, using PathScan® Cleaved Caspase-3 Sandwich ELISA kit (CST, Danvers, MA).

Structures are written as SMILES. “Also recorded” adds a separate entry of the source.

For the molecule `CC/C=C\CC1C(=O)CCC1CC(=O)Oc1cccc2cccnc12` (stereo not shown) [Formula C], the IC50 in test [1] was 1380 nM; in the test on CTCL cell line Hut-78 it was 1060 nM; in [2], 835 nM; in the test with Prostate PRXF MRI-H-1579 it was 1660 nM; with Prostate PC-3, 1200 nM; in test [3] it was 1160 nM. Also, the IC50 in [4] was 1970 nM; in the test on Lung (SCLC) LXFS NCI-H82 it was 1770 nM; with Breast MAXF 857, 1560 nM; in test [6] it was 1200 nM; in the test on Breast MAXF 401 it was 4220 nM; in [7] it was 2280 nM. The “cleaved caspase-3 positive cells (IHC), apoptosis in epidermis” value in test [5] (UVB-exposed SKH-1 mice, Day 50) is “induces apoptosis; also recorded: statistically significant induction of apoptosis”. The “mitotic index in AK regions of the skin (epidermis)” value in [5] (UVB-exposed SKH-1 mice, Day 50, all Formula C treatment groups vs vehicle) is recorded as “reduces cell proliferation; also recorded: significantly reduced”. In test [5] (UVB-exposed SKH-1 mice, topical treatment, data not shown), the “epidermal thickness (histopathology)” value is “thinner epidermis”. Further, in test [5] (UVB-exposed mice, 5% Formula C ointment, 50 days of treatment), the “HK2 staining in epidermis (IHC)” value is “decreases after 50 days; also recorded: HK2 staining levels are low”. Also, the “HK2 protein levels in AK areas (IHC)” value is “dramatic decrease in HK2 protein levels” in test [5] (UVB-exposed mice, 2 days of treatment, satellite study) and “did not show this effect” in test [5] (UVB-exposed mice, one day of treatment, data not shown). Moreover, the “cytochrome C levels in the mitochondrial fraction” value in the test on A431 cells is reported as “reduction of cytochrome C levels”.
